{
  "source": "patent US8242117B2",
  "about": "“5-membered heterocycle-based p38 kinase inhibitors” (Novartis AG, priority 2003, dated 2012)",
  "target": "T1, p38α kinase (Homo sapiens, UniProt Q16539)",
  "T1 construct": "purchased Upstate",
  "T1 sequence (Q16539 whole entry, the tested form may be a part)": "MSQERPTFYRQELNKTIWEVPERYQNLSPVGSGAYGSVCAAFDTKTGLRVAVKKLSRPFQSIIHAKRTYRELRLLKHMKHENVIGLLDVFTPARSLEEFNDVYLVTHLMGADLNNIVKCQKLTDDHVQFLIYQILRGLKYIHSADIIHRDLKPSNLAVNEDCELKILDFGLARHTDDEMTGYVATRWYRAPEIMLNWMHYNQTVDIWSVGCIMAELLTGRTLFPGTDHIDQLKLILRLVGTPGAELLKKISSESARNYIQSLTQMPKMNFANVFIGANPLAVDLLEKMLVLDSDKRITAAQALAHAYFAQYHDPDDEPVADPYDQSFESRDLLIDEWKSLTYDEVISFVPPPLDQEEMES",
  "assay": "p38α assay (ADP release coupled to NADH oxidation)",
  "type": "biochemical",
  "details": "60 min preincubation, 0.15 mM ATP, 20 nM p38α kinase",
  "protocol": "cDNAs of human p38α and β were cloned by PCR. The α and β cDNAs were subcloned into DEST2 plasmid (Gateway, InVitrogen). His6-p38 fusion protein was expressed in E. coli and purified from bacterial lysates by affinity chromatography using Ni^+2-NTA-agarose. His6-p38 protein was activated by incubating with constitutively active MKK6. Active p38 was separated from MKK6 by affinity chromatography. Constitutively active MKK6 was generated in a manner similar to Raingeaud et al. [Mol. Cell. Biol., 1247-1255 (1996)].\nThe p38α assay employed is based on measurement of ADP released in the reaction of interest through NADH oxidation obtained by coupling with pyruvate kinase and lactate dehydrogenase reactions. The assays were performed in 384-well UV-plates. The final volume was 25 μL prepared from the addition of 2.5 μL compound dissolved in 10% DMSO, 17.5 μL of assay buffer and 5 μL of ATP. Assay buffer contains the following reagents to give final concentration in the assay: 25 mM HEPES, 20 mM 2-glycerophosphate, pH 7.6, 10 mM MgCl2, 0.1 mM sodium orthovanadate, 0.5 mM phosphoenolpyruvate, 0.12 mM NADH, 3.1 mg/ml LDH, 6.67 mg/ml pyruvate kinase, 0.25 mM peptide substrate, 2 mM DTT, 0.005% Tween 80 and 20 nM p38α kinase from Upstate. Test compounds are preincubated zith p38α kinase for 60 min and the reaction started by addition of ATP to 0.15 mM final concentration. Reaction rates were measured at 340 nm using SpectraMax plate-reading spectrophotometer for 10 min at 37° C. Inhibition data were analyzed by non-linear least-squares regression using SigmaPlot.",
  "data": [
    {"smiles": "Cc1ccc(C(=O)NC2CC2)cc1-n1ncc(C(=O)c2cccc(CO)c2)c1N", "note": "[Example 10, 3-[5-amino-4-(3-hydroxymethyl-benzoyl)-pyrazol-1-yl]-N-cyclopropyl-4-methyl-benzamide]", "values": [
      {"measurement": "IC50", "result": "< 1000", "unit": "nM"}
    ]},
    {"smiles": "Cc1ccc(C(=O)O)cc1-n1ncc(C(=O)c2ccccc2)c1N", "note": "[Example 3, 3-(5-amino-4-benzoyl-pyrazol-1-yl)-4-methyl-benzoic acid]", "values": [
      {"measurement": "IC50", "result": "1000 to 10000", "unit": "nM"}
    ]},
    {"smiles": "Cc1ccc(C(=O)NC2CC2)cc1-n1nc(OCCOCc2ccccc2)c(C(=O)c2ccccc2)c1N", "note": "[Example 33, 3-[5-amino-4-benzoyl-3-(2-benzyloxy-ethoxy)-pyrazol-1-yl]-N-cyclopropyl-4-methyl-benzamide]", "values": [
      {"measurement": "IC50", "result": "< 1000", "unit": "nM"}
    ]},
    {"smiles": "Cc1ccc(-c2nnc[nH]2)cc1-n1ncc(C(=O)c2ccccc2)c1N", "note": "[Example 7, {5-amino-1-[2-methyl-5-(4H-[1,2,4]triazol-3-yl)-phenyl]-1H-pyrazol-4-yl}-phenyl-methanone]", "values": [
      {"measurement": "IC50", "result": "< 1000", "unit": "nM"}
    ]},
    {"smiles": "Cc1ccc(C(=O)NC2CC2)cc1-n1cnc(C(=O)c2ccc3c(c2)OCO3)c1N", "note": "[Example 87, 3-[5-Amino-4-(benzo[1,3]dioxole-5-carbonyl)-imidazol-1-yl]-N-cyclopropyl-4-methyl-benzamide]", "values": [
      {"measurement": "IC50", "result": "< 1000", "unit": "nM"}
    ]},
    {"smiles": "Cc1ccc(C(=O)NC2CC2)cc1-n1ncc(C(=O)c2cccc(OCC(O)CO)c2)c1N", "note": "(stereo not shown) [Example 171, 3-{5-Amino-4-[3-(2,3-dihydroxy-propoxy)-benzoyl]-pyrazol-1-yl}-N-cyclopropyl-4-methylbenzamide]", "values": [
      {"measurement": "IC50", "result": "< 1000", "unit": "nM"}
    ]},
    {"smiles": "CONC(=O)c1ccc(C)c(-n2ncc(C(=O)c3ccccc3)c2N)c1", "note": "[Example 2, 3-(5-Amino-4-benzoyl-pyrazol-1-yl)-N-methoxy-4-methyl-benzamide]", "values": [
      {"measurement": "IC50", "result": "< 1000", "unit": "nM"}
    ]},
    {"smiles": "COc1nn(-c2cc(C(=O)NC3CC3)ccc2C)c(N)c1C(=O)c1ccccc1", "note": "[Example 30, 3-(5-amino-4-benzoyl-3-methoxy-pyrazol-1-yl)-N-cyclopropyl-4-methyl-benzamide]", "values": [
      {"measurement": "IC50", "result": "< 1000", "unit": "nM"}
    ]},
    {"smiles": "Cc1ccc(C(=O)NC2CC2)cc1-n1ncc(C(=O)c2cccc(C=O)c2)c1N", "note": "[Example 9, 3-[5-amino-4-(3-formyl-benzoyl)-pyrazol-1-yl]-N-cyclopropyl-4-methyl-benzamide]", "values": [
      {"measurement": "IC50", "result": "< 1000", "unit": "nM"}
    ]},
    {"smiles": "Cc1ccc(C(=O)NC2CC2)cc1-n1ncc(C(=O)NC2CCCCC2C)c1N", "note": "(stereo not shown) [Example 128, 5-Amino-1-(5-cyclopropylcarbamoyl-2-methyl-phenyl)-1H-pyrazole-4-carboxylic acid (2-methyl-cyclohexyl)-amide]", "values": [
      {"measurement": "IC50", "result": "< 1000", "unit": "nM"}
    ]},
    {"smiles": "CCOC(=O)c1cnn(-c2cc(C(=O)NC3CC3)ccc2C)c1N", "note": "[Example 48, 5-Amino-1-(5-cyclopropylcarbamoyl-2-methyl-phenyl)-1H-pyrazole-4-carboxylic acid ethyl ester]", "values": [
      {"measurement": "IC50", "result": "< 1000", "unit": "nM"}
    ]},
    {"smiles": "Cc1ccc(C(=O)NC2CC2)cc1-n1cnc(C(=O)C2CCOCC2)c1N", "note": "[Example 29, 3-[5-Amino-4-(tetrahydro-pyran-4-carbonyl)-imidazol-1-yl]-N-cyclopropyl-4-methyl-benzamide]", "values": [
      {"measurement": "IC50", "result": "< 1000", "unit": "nM"}
    ]},
    {"smiles": "Cc1ccc(C(=O)O)cc1-n1ncc(C(=O)c2cccc(I)c2)c1N", "note": "[Example 5, 3-[5-amino-4-(3-iodo-benzoyl)-pyrazol-1-yl]-4-methyl-benzoic acid]", "values": [
      {"measurement": "IC50", "result": "1000 to 10000", "unit": "nM"}
    ]},
    {"smiles": "Cc1ccc(C(=O)NC2CC2)cc1-n1cnc(C(=O)C2CCCCC2)c1N", "note": "[Example 18, 3-(5-Amino-4-cyclohexanecarbonyl-imidazol-1-yl)-N-cyclopropyl-4-methyl-benzamide]", "values": [
      {"measurement": "IC50", "result": "< 1000", "unit": "nM"}
    ]},
    {"smiles": "Cc1ccc(C(=O)NC2CC2)cc1-n1cnc(C(=O)c2ccccn2)c1N", "note": "[Example 76, 3-[5-Amino-4-(pyridine-2-carbonyl)-imidazol-1-yl]-N-cyclopropyl-4-methyl-benzamide]", "values": [
      {"measurement": "IC50", "result": "< 1000", "unit": "nM"}
    ]},
    {"smiles": "CONC(=O)c1ccc(C)c(-n2ncc(C(=O)c3cccc(I)c3)c2N)c1", "note": "[Example 1, 3-[5-Amino-4-(3-iodo-benzoyl)-pyrazol-1-yl]-N-methoxy-4-methyl-benzamide]", "values": [
      {"measurement": "IC50", "result": "< 1000", "unit": "nM"}
    ]},
    {"smiles": "CCOC(=O)c1c(C)nn(-c2cc(C(=O)NC3CC3)ccc2C)c1N", "note": "[Example 49, 5-Amino-1-(5-cyclopropylcarbamoyl-2-methyl-phenyl)-3-methyl-1H-pyrazole-4-carboxylic acid ethyl ester]", "values": [
      {"measurement": "IC50", "result": "< 1000", "unit": "nM"}
    ]},
    {"smiles": "Cc1ccc(C(=O)NC2CC2)cc1-n1ncc(C(=O)c2cccc(I)c2)c1N", "note": "[Example 6, 3-[5-amino-4-(3-iodo-benzoyl)-pyrazol-1-yl]-N-cyclopropyl-4-methyl-benzamide]", "values": [
      {"measurement": "IC50", "result": "< 1000", "unit": "nM"}
    ]},
    {"smiles": "Cc1ccc(C(=O)NC2CC2)cc1-n1ncc(C(=O)c2cccc(C#N)c2)c1N", "note": "[Example 52, 3-[5-Amino-4-(3-cyanobenzoyl)-pyrazol-1-yl]-N-cyclopropyl-4-methylbenzamide]", "values": [
      {"measurement": "IC50", "result": "< 1000", "unit": "nM"}
    ]},
    {"smiles": "Cc1ccc(C(=O)NC2CC2)cc1-n1ncc(C(=O)NC2CCc3ccccc32)c1N", "note": "(stereo not shown) [Example 135, 5-Amino-1-(5-cyclopropylcarbamoyl-2-methyl-phenyl)-1H-pyrazole-4-carboxylic acid indan-1-ylamide]", "values": [
      {"measurement": "IC50", "result": "< 1000", "unit": "nM"}
    ]},
    {"smiles": "Cc1ccc(C(=O)NC2CC2)cc1-n1ncc(C(=O)c2cccc(C3OCCO3)c2)c1N", "note": "[Example 8, 3-[5-amino-4-(3-[1,3]dioxolan-2-yl-benzoyl)-pyrazol-1-yl]-N-cyclopropyl-4-methyl-benzamide]", "values": [
      {"measurement": "IC50", "result": "< 1000", "unit": "nM"}
    ]},
    {"smiles": "Cc1ccc(C(=O)NC2CC2)cc1-n1ncc(C(=O)c2cccc(-c3nnco3)c2)c1N", "note": "[Example 53, 3-[5-Amino-4-(3-[1,3,4]oxadiazol-2-yl-benzoyl)-pyrazol-1-yl]-N-cyclopropyl-4-methylbenzamide]", "values": [
      {"measurement": "IC50", "result": "< 1000", "unit": "nM"}
    ]},
    {"smiles": "CCOC(=O)c1c(OCC(=O)NCc2cccc(Cl)c2)nn(-c2cc(C(=O)NC3CC3)ccc2C)c1N", "note": "[Example 50, 5-Amino-3-[(3-chloro-benzylcarbamoyl)-methoxy]-1-(5-cyclopropylcarbamoyl-2-methyl-phenyl)-1H-pyrazole-4-carboxylic acid ethyl ester]", "values": [
      {"measurement": "IC50", "result": "< 1000", "unit": "nM"}
    ]},
    {"smiles": "Cc1ccc(C(=O)NC2CC2)cc1-n1ncc(C(=O)c2ccccc2)c1N", "note": "[Example 4, 3-(5-amino-4-benzoyl-pyrazol-1-yl)-N-cyclopropyl-4-methyl-benzamide]", "values": [
      {"measurement": "IC50", "result": "< 1000", "unit": "nM"}
    ]},
    {"smiles": "Cc1ccc(C(=O)NC2CC2)cc1-n1nc(OC2CCN(C(=O)OC(C)(C)C)CC2)c(C(=O)c2ccccc2)c1N", "note": "[Example 34, 4-[5-amino-4-benzoyl-1-(5-cyclopropylcarbamoyl-2-methyl-phenyl)-1H-pyrazol-3-yloxy]-piperidine-1-carboxylic acid tert-butyl ester]", "values": [
      {"measurement": "IC50", "result": "< 1000", "unit": "nM"}
    ]}
  ]
}
